Experimental findings from ChEMBL document CHEMBL1133780, “Synthesis and antiparasitic activity of 2-(trifluoromethyl)-benzimidazole derivatives” (Bioorg Med Chem Lett, 2001) are described below.

For assay [1], the species on record is Rattus norvegicus. Put plainly: Tested for inhibition of tubulin polymerization in rat brain at a concentration of 3*10e-3 uM. In kind it is functional.
For assay [2], the system named is Trichinella spiralis. Description: Percent reduction of viability of Trichinella spiralis muscle larvae at a concentration of 3*10e-6 uM. In kind it is functional.
The species named for assay [3] is Rattus norvegicus. Put plainly: Tested for inhibition of tubulin polymerization in rat brain at a concentration of 3*10e-5 uM. In kind it is functional.
The next assay concerns Giardia intestinalis. Description: In vitro antiprotozoal activity against Giardia lamblia. In kind it is functional, organism-based. Particulars: Giardia duodenalis.
Assay [4] relates to Trichinella spiralis. Put plainly: Percent reduction of viability of Trichinella spiralis muscle larvae at a concentration of 3*10e-4 uM. In kind it is functional.
For assay [5], the species on record is Rattus norvegicus. Put plainly: Tested for inhibition of tubulin polymerization in rat brain at a concentration of 0.015 uM. In kind it is functional.
The species named for assay [6] is Rattus norvegicus. Put plainly: Tested for inhibition of tubulin polymerization in rat brain at a concentration of 0.024 uM. In kind it is functional.
The subject of the next assay is Entamoeba histolytica. Put plainly: In vitro antiprotozoal activity against Entamoeba histolytica. In kind it is functional, organism-based.
For assay [7], the system named is Trichinella spiralis. Put plainly: Percent reduction of viability of Trichinella spiralis muscle larvae at a concentration of 3*10e-3 uM. In kind it is functional.
Assay [8] has as its system Trichinella spiralis. Put plainly: Percent reduction of viability of Trichinella spiralis muscle larvae at a concentration of 3*10e-5 uM. In kind it is functional.
Assay [9] has as its system Trichinella spiralis. Put plainly: Percent reduction of viability of Trichinella spiralis muscle larvae at a concentration of 3*10e-6 uM; No reduction observed. In kind it is functional, organism-based.
For assay [10], the system named is Trichinella spiralis. Description: Percent reduction of viability of Trichinella spiralis muscle larvae at a concentration of 3*10e-5 uM; No reduction observed. In kind it is functional, organism-based.
The subject of assay [11] is Trichinella spiralis. Description: Percent reduction of viability of Trichinella spiralis muscle larvae at a concentration of 3*10e-4 uM; No reduction observed. In kind it is functional, organism-based.
Assay [12] concerns Trichinella spiralis. Description: Percent reduction of viability of Trichinella spiralis muscle larvae at a concentration of 3*10e-3 uM; No reduction observed. In kind it is functional, organism-based.

By IC50 is commonly meant the concentration that inhibits the measured activity by half. High values mean lower potency, low ones higher potency. Take `Cn1c(C(F)(F)F)nc2cc(Cl)ccc21`: the Viscosity in the assay listed under Rattus norvegicus [1] is on record as 7.58; in the assay listed under Rattus norvegicus [3], 7.3; in the assay listed under Rattus norvegicus [5], 6.94; in the assay filed under Rattus norvegicus [6], 7.54. The Reduction with Trichinella spiralis [2] is 2%; with Trichinella spiralis [4] it was 16%; with Trichinella spiralis [7], 39%; in the assay on Trichinella spiralis [8], 9%. Also, the figures for the IC50 in the assay with Giardia intestinalis and in the assay with Entamoeba histolytica were 0.042 µM and 0.046 µM, respectively.

`FC(F)(F)c1nc2cc(Cl)c(Cl)cc2[nH]1`: the Viscosity in the assay filed under Rattus norvegicus [1] is 7.03; in the assay filed under Rattus norvegicus [3] it was 7; in the assay filed under Rattus norvegicus [5], 6.68; in the assay listed under Rattus norvegicus [6] it was 7.22. In addition, the IC50 with Giardia intestinalis came to 0.078 µM; in the assay on Entamoeba histolytica, 0.011 µM. For the same compound, the Reduction in the assay with Trichinella spiralis [4] was 9%; in the assay on Trichinella spiralis [9], “No reduction”; with Trichinella spiralis [7], 19%; in the assay with Trichinella spiralis [8], 1%.

For `FC(F)(F)c1nc2cc(Cl)ccc2[nH]1`, the Reduction entry in the assay on Trichinella spiralis [10], in the assay with Trichinella spiralis [9], in the assay on Trichinella spiralis [11] and in the assay with Trichinella spiralis [12] was “No reduction” in each case. The Viscosity stood at 6.7 in the assay listed under Rattus norvegicus [1], 6.59 in the assay filed under Rattus norvegicus [3], 7.14 in the assay listed under Rattus norvegicus [5] and 6.47 in the assay filed under Rattus norvegicus [6]. In addition, the IC50 in the assay on Giardia intestinalis is 1.28 µM; with Entamoeba histolytica, 0.022 µM.

For `Cc1ncc([N+](=O)[O-])n1CCO` [METRONIDAZOLE], the IC50 in the assay on Giardia intestinalis was 1.22 µM; with Entamoeba histolytica it was 0.35 µM.

For the compound `Cn1c(C(F)(F)F)nc2cc(Cl)c(Cl)cc21`, the Viscosity was determined as 7.63 in the assay listed under Rattus norvegicus [1], 6.93 in the assay listed under Rattus norvegicus [3], 6.63 in the assay listed under Rattus norvegicus [5] and 6.94 in the assay filed under Rattus norvegicus [6]. Also, the Reduction stood at 2% in the assay with Trichinella spiralis [2], 9% in the assay with Trichinella spiralis [4], 15% with Trichinella spiralis [7] and 4% in the assay with Trichinella spiralis [8]. Moreover, the half-maximal inhibitory concentration (IC50) in the assay on Giardia intestinalis came to 0.26 µM; in the assay with Entamoeba histolytica it was 0.033 µM.

Consider `CCCSc1ccc2[nH]c(NC(=O)OC)nc2c1` [ALBENDAZOLE], for which the results for the Viscosity in the assay filed under Rattus norvegicus [1] and in the assay filed under Rattus norvegicus [3] were 2.07 and 7.04, respectively. In addition, the Reduction with Trichinella spiralis [2] worked out at 6%; in the assay on Trichinella spiralis [4], 20%; in the assay with Trichinella spiralis [7], 30%; with Trichinella spiralis [8], 13%. The IC50 was found to be 0.037 µM in the assay with Giardia intestinalis and 56.3 µM in the assay on Entamoeba histolytica.

Take `Cn1c(C(F)(F)F)nc2ccccc21`: the Viscosity in the assay filed under Rattus norvegicus [1] is listed as 7.41; in the assay listed under Rattus norvegicus [3], 6.68; in the assay listed under Rattus norvegicus [5], 7.31; in the assay listed under Rattus norvegicus [6], 7.16. The results for the IC50 in the assay with Giardia intestinalis and in the assay on Entamoeba histolytica were 0.064 µM and 0.04 µM, respectively. The Reduction with Trichinella spiralis [4] was 9%; with Trichinella spiralis [9], “No reduction”; with Trichinella spiralis [7], 12%; with Trichinella spiralis [8], 1%.

With `Cn1c(C(F)(F)F)nc2ccc(Cl)cc21`, the Reduction result in the assay on Trichinella spiralis [10], with Trichinella spiralis [9], in the assay on Trichinella spiralis [11] and in the assay on Trichinella spiralis [12] was “No reduction” each time. The Viscosity is given as 7.39 in the assay filed under Rattus norvegicus [1], 6.44 in the assay listed under Rattus norvegicus [3], 7.07 in the assay filed under Rattus norvegicus [5] and 7.26 in the assay listed under Rattus norvegicus [6]. For the same compound, the IC50 was found to be 0.127 µM in the assay with Giardia intestinalis and 0.008 µM in the assay on Entamoeba histolytica.

For the compound `FC(F)(F)c1nc2ccccc2[nH]1`, the Viscosity in the assay listed under Rattus norvegicus [1] came to 7.56; in the assay listed under Rattus norvegicus [3] it was 7.55; in the assay listed under Rattus norvegicus [5], 7.34; in the assay filed under Rattus norvegicus [6], 6.92. Moreover, the IC50 came out at 0.107 µM in the assay with Giardia intestinalis and 0.069 µM with Entamoeba histolytica. The Reduction in the assay on Trichinella spiralis [4] was 3%; in the assay on Trichinella spiralis [9] it was “No reduction”; in the assay on Trichinella spiralis [7], 9%; in the assay on Trichinella spiralis [8] it was 1%.
